These results are taken from patent publication US5977088A (priority 1995, dated 1999).

“Also recorded” adds a separate entry of the source. Counter-ions that a name gives are not always drawn. Like-named read-outs stand apart in the source and are kept apart here.

The conditions of series [1]: human, in vivo.
Series [2] in a line: Topical treatment of back pain in a patient with kyphosis. Conditions: applied to back in hyaluronic acid.
Series [3] is described as follows: Intravenous injection, radioactivity in liver. In kind it is in vivo, Fisher 344 rat. The arrangement: unit not given beside the values. As to conditions: mean ± S.E.
A short description of series [4]: Intratumour injection study, radioactivity in normal skin. It is filed as in vivo, Fisher 344 rat. As to conditions: injection into normal skin; 1 h, 6 h.
Method: Animal: Fisher 344 rat, male 200-250g At the same time, injection into normal skin (left frank) was carried out similarly. […] At the same time, injection into normal skin (on the left frank) was carried out similarly.
The subject of series [5] is Fisher Bladder Carcinoma tumor tissue. The series can be described thus: Intravenous injection, radioactivity in tumor tissue. Conditions: mean ± S.E., FIG. 5 plots CPM.
Method: (§1) Tumor (2 mm viable tumor fragment) was transplanted subcutaneously on the right frank by trocar
(§2) Treatment was started when tumor size is about 1.5 cm.(2 weeks after implantation.) . . . tumor weight: 1.0+0.3 g
(§3) The drug was administered Intravenously (through the penile vein)
(§4) Group A: 5-FU 20 mg/kg (3H-5-FU30 μCi)+saline
(§5) Tumor was surgically removed (and blood was collected) at *predeterminated time after drug administration. Tumor weight was measured (and blood was centrifuged to obtain a plasma sample.)
(§6) *15 min, 60 min, 3 hr, 4 hrs, . . . after drug administration . . . .
(§7) Radioactivity level in tumor tissue was counted, using a liquid scintillation counter.
The test system is the same in series [6]. As to the kind of experiment: Intratumour injection study, radioactivity in tumor tissue. It is filed as in vivo, Fisher 344 rat. As to conditions: intratumor injection; 1 h, 6 h.
Method: Animal: Fisher 344 rat, male 200-250g b. […] These drugs were administrated by intratumor injection. […] At the same time, injection into normal skin (on the left frank) was carried out similarly.
Series [7] in a line: Chronic conditions - evaluations of patients treated with […] hyaluronic acid with 3% diclofenac acid (HD). As to conditions: single patient. In kind it is in vivo, human (patients).
The nature of series [8]: Toxicity of indomethacin solubilized in n-methyl glucamine with hyaluronic acid in animals. It is filed as in vivo. The procedure: As a major amount of soluble indomethacin may be incorporated into the formulation, or composition, the indomethacin may be solubilized using n-methyl glucamine at a dilution of 5 mg/ml of n-methyl glucamine (NMG). This substance is then passed through a […] Milipore filter to produce sterility. […] The solution of indomethacin and NMG may be mixed with, for example, "LifeCore™" hyaluronic acid in dosage amounts discussed above. This produces an appropriate mixture and can be administered safely.

The test system of series [9] is psoriasis. The series can be described thus: Topical treatment of a patient with psoriasis. As to conditions: carried in hyaluronic acid. In kind it is in vivo, human (patient).
Method: In another patient, a drug (methotrexate) was carried in hyaluronic acid and applied topically to a patient with psoriasis.
For series [10], the system named is Fisher Bladder Carcinoma tumor tissue. As to conditions: rat, in vivo, iv.
Method: as §1, §2, §3, §4, §5, §6, §7
For series [11] the following is noted: monkey, in vivo; cited from earlier work.

For the compound `O=C(c1ccccc1)c1ccc2n1CCC2C(=O)O` (racemic) [Toradol™, (+/-) tromethamine salt of ketorolac], the Side effects entry in series [1] is given as “there were no side effects”. Further, the Back pain result in series [2] is “the back pain eased and disappeared for some time”.

In the case of `O=c1[nH]cc(F)c(=O)[nH]1` [Formulation 5-FU, 5-Fluoracil], the Radioactivity in liver came to 18680 ± 625 in series [3] (15 min after i.v.), 5451 ± 841 in series [3] (60 min after i.v.), 2230 ± 449 in series [3] (3 hrs after i.v.) and 1129 ± 70 in series [3] (5 hrs after i.v.). The “Radioactivity clearance in normal tissue (skin) (in words)” value in [4] was “radioactivity immediately disappeared from the tumor or the normal tissue”. The Radioactivity in tumor is 2810 ± 165 in [5] (15 min after i.v.), 1751 ± 149 in series [5] (60 min after i.v.), 1493 ± 227 in series [5] (3 hrs after i.v.) and 853 ± 129 in series [5] (5 hrs after i.v.). Besides, the “Radioactivity retention in tumor tissue (in words)” value in series [6] is “radioactivity immediately disappeared from the tumor or the normal tissue”.

Turning to `O=C(OCC(O)CO)c1ccccc1Nc1ccnc2c(C(F)(F)F)cccc12` (centres unmarked) [Idarac], in series [7], the “Comments on outcome (in words)” value is given as “poor response”.

As for `COc1ccc2c(c1)c(CC(=O)O)c(C)n2C(=O)c1ccc(Cl)cc1` [indomethacin], in series [2], the Side effects entry was “some side effects”. Besides, the “Multiple of the therapeutic dose that is non-toxic in animals” value in series [8] amounted to 16 fold.

As to `CN(Cc1cnc2nc(N)nc(N)c2n1)c1ccc(C(=O)N[C@@H](CCC(=O)O)C(=O)O)cc1` [methotrexate], in [9], the Response of psoriasis entry is recorded as “the psoriasis cleared”.

For the compound `COc1ccc2cc([C@H](C)C(=O)O)ccc2c1` [naproxen], the Side effects result in [2] was “some side effects”.

On to `CN1C(C(=O)Nc2ccccn2)=C(O)c2ccccc2S1(=O)=O` [piroxicam], for which the “Comments on outcome (in words)” value in series [7] was “nega-; also recorded: poor relief”.

On to hyaluronic acid, for which the “Radioactivity in tumor tissue (in words)” value in [10] is on record as “can enhance 5-FU uptake in tumor tissue”.

As to sodium hyaluronate, in [11], the “Cellular infiltration of the vitreous and anterior chamber, flare, haze, pathological changes” value was “no significant cellular infiltration of the vitreous and anterior chamber, no flare in the aqueous humour, no haze or flare in the vitreous, and no pathological changes”.
